Measured values: ChEMBL document CHEMBL3044903, “Synthesis and Herbicidal Activity of Novel 3-Alkoxycarbonyl-3-aryl-2,3-dihydro-2-oxo-1H-pyrrole Derivatives” (J Pestic Sci, 2004)

Experiments:
[1] = system: Echinochloa oryzicola; experiment: Post-emergence herbicide activity against Echinochloa oryzicola under greenhouse condition at 10 g a.i/a treated at one-leaf stage measured after 3 weeks; format: functional
[2] = system: Echinochloa oryzicola; experiment: Pre-emergence herbicide activity against Echinochloa oryzicola under greenhouse condition at 10 g a.i/a measured after 3 weeks; format: functional
[3] = system: Schoenoplectiella juncoides; experiment: Pre-emergence herbicide activity against Schoenoplectiella juncoides under greenhouse condition at 10 g a.i/a measured after 3 weeks; format: functional
[4] = system: Echinochloa oryzicola; experiment: Post-emergence herbicide activity against Echinochloa oryzicola under greenhouse condition at 1 g a.i/a treated at one-leaf stage measured after 3 weeks; format: functional
[5] = system: Echinochloa oryzicola; experiment: Pre-emergence herbicide activity against Echinochloa oryzicola under greenhouse condition at 1 g a.i/a measured after 3 weeks; format: functional
[6] = system: Schoenoplectiella juncoides; experiment: Pre-emergence herbicide activity against Schoenoplectiella juncoides under greenhouse condition at 1 g a.i/a measured after 3 weeks; format: functional
[7] = system: Schoenoplectiella juncoides; experiment: Post-emergence herbicide activity against Schoenoplectiella juncoides under greenhouse condition at 1 g a.i/a treated at one-leaf stage measured after 3 weeks; format: functional
[8] = system: Schoenoplectiella juncoides; experiment: Post-emergence herbicide activity against Schoenoplectiella juncoides under greenhouse condition at 10 g a.i/a treated at one-leaf stage measured after 3 weeks; format: functional
[9] = system: Oryza sativa; experiment: Phytotoxicity against two-leaf stage Oryza sativa cv. Nipponbare (rice) planted zero cm depth at 1 g a.i/a measured after 3 weeks; format: organism-based; conditions: in vivo, other, 504 h
[10] = system: Echinochloa oryzicola; experiment: Herbicidal activity against Echinochloa oryzicola at 1 g a.i/a treated at 1.5 leaf stage measured after 3 weeks; format: functional
[11] = system: Oryza sativa; experiment: Phytotoxicity against two-leaf stage Oryza sativa cv. Nipponbare (rice) planted zero cm depth at 5.0 g a.i/a measured after 3 weeks; format: organism-based; conditions: in vivo, 504 h
[12] = system: Echinochloa oryzicola; experiment: Herbicidal activity against Echinochloa oryzicola at 5.0 g a.i/a treated at 1.5 leaf stage measured after 3 weeks; format: functional
[13] = system: Oryza sativa; experiment: Phytotoxicity against two-leaf stage Oryza sativa cv. Nipponbare (rice) planted zero cm depth at 2.5 g a.i/a measured after 3 weeks; format: organism-based; conditions: in vivo, other, 504 h
[14] = system: Echinochloa oryzicola; experiment: Herbicidal activity against Echinochloa oryzicola at 1 g a.i/a treated at 2.5 leaf stage measured after 3 weeks; format: functional
[15] = system: Echinochloa oryzicola; experiment: Herbicidal activity against Echinochloa oryzicola at 5.0 g a.i/a treated at 2.5 leaf stage measured after 3 weeks; format: functional
[16] = system: Oryza sativa; experiment: Phytotoxicity against two-leaf stage Oryza sativa cv. Nipponbare (rice) planted 2 cm depth at 5.0 g a.i/a measured after 3 weeks; format: organism-based; conditions: in vivo, 504 h
[17] = system: Oryza sativa; experiment: Phytotoxicity against two-leaf stage Oryza sativa cv. Nipponbare (rice) planted 2 cm depth at 1 g a.i/a measured after 3 weeks; format: organism-based; conditions: in vivo, other, 504 h
[18] = system: Echinochloa oryzicola; experiment: Herbicidal activity against Echinochloa oryzicola at 2.5 g a.i/a treated at 2.5 leaf stage measured after 3 weeks; format: functional
[19] = system: Oryza sativa; experiment: Phytotoxicity against two-leaf stage Oryza sativa cv. Nipponbare (rice) planted 2 cm depth at 2.5 g a.i/a measured after 3 weeks; format: organism-based; conditions: in vivo, 504 h
[20] = system: Echinochloa oryzicola; experiment: Herbicidal activity against Echinochloa oryzicola at 2.5 g a.i/a treated at 1.5 leaf stage measured after 3 weeks; format: functional
[21] = system: Oryza sativa; experiment: Phytotoxicity against two-leaf stage Oryza sativa cv. Nipponbare (rice) planted 2 cm depth assessed as crop injury at 2 g a.i/a followed by leaching of irrigation water for 3 days measured after 3 weeks post-treatment; format: organism-based; conditions: in vivo, other, 504 h
[22] = system: Oryza sativa; experiment: Phytotoxicity against two-leaf stage Oryza sativa cv. Nipponbare (rice) planted 2 cm depth assessed as crop injury at 4 g a.i/a followed by leaching of irrigation water for 3 days measured after 3 weeks post-treatment; format: organism-based; conditions: in vivo, other, 504 h

**Q.** COC(=O)C1(c2ccccc2)C(=O)N(C(C)(C)c2cccc(Cl)n2)C=C1C (configuration not stated) was tested. Which Activity [1] did it give?
**A.** 87.6%

**Q.** And the Activity [2]?
**A.** 100%

**Q.** And the Activity [3]?
**A.** 100%

**Q.** What about the Activity [4] of the same compound?
**A.** 0%

**Q.** What about the Activity [5] of the same compound?
**A.** 100%

**Q.** What about the Activity [6] of the same compound?
**A.** 100%

**Q.** And the Activity [7]?
**A.** 87.6%

**Q.** And the Activity [8]?
**A.** 87.6%

**Q.** For COC(=O)C1(c2ccccc2)C(=O)N(C(C)(C)c2cc(Cl)cc(Cl)c2)C=C1/C=N/O (configuration not stated), which Activity [1] is on record?
**A.** 0.1%

**Q.** What about the Activity [2] of the same compound?
**A.** 100%

**Q.** What about the Activity [3] of the same compound?
**A.** 75.1%

**Q.** And the Activity [4]?
**A.** 0%

**Q.** And the Activity [5]?
**A.** 0%

**Q.** What about the Activity [6] of the same compound?
**A.** 0%

**Q.** And the Activity [7]?
**A.** 0%

**Q.** What about the Activity [8] of the same compound?
**A.** 0.1%

**Q.** With COC(=O)C1(c2ccccc2)C(=O)N(C(C)(C)c2cc(Cl)nc(Cl)c2)C=C1C (configuration not stated) as the compound, how does the Activity [1] read?
**A.** 100%

**Q.** And the Activity [9]?
**A.** 30%

**Q.** And the Activity [2]?
**A.** 100%

**Q.** And the Activity [3]?
**A.** 100%

**Q.** What about the Activity [4] of the same compound?
**A.** 50.1%

**Q.** And the Activity [5]?
**A.** 100%

**Q.** And the Activity [10]?
**A.** 75%

**Q.** What about the Activity [6] of the same compound?
**A.** 100%

**Q.** What about the Activity [11] of the same compound?
**A.** 80%

**Q.** And the Activity [12]?
**A.** 99%

**Q.** And the Activity [13]?
**A.** 70%

**Q.** What about the Activity [14] of the same compound?
**A.** 50%

**Q.** What about the Activity [7] of the same compound?
**A.** 87.6%

**Q.** And the Activity [8]?
**A.** 87.6%

**Q.** What about the Activity [15] of the same compound?
**A.** 98%

**Q.** What about the Activity [16] of the same compound?
**A.** 0%

**Q.** What about the Activity [17] of the same compound?
**A.** 0%

**Q.** And the Activity [18]?
**A.** 90%

**Q.** What about the Activity [19] of the same compound?
**A.** 0%

**Q.** What about the Activity [20] of the same compound?
**A.** 99%

**Q.** Which results are given for COC(=O)C1(c2ccccc2)C(=O)N(C(C)(C)c2cc(F)cc(F)c2)C=C1C (configuration not stated)?
**A.** Activity [1]: 100%; Activity [2]: 100%; Activity [3]: 100%; Activity [4]: 50.1%; Activity [5]: 75.1%; Activity [6]: 100%; Activity [7]: 87.6%; Activity [8]: 87.6%

**Q.** For COC(=O)C1(c2ccccc2)C(=O)N(C(C)(C)c2cc(Cl)cc(Cl)c2)C=C1CO (configuration not stated), which Activity [1] is on record?
**A.** 100%

**Q.** And the Activity [9]?
**A.** 0%

**Q.** And the Activity [2]?
**A.** 100%

**Q.** What about the Activity [3] of the same compound?
**A.** 100%

**Q.** What about the Activity [4] of the same compound?
**A.** 87.6%

**Q.** And the Activity [5]?
**A.** 100%

**Q.** And the Activity [10]?
**A.** 97%

**Q.** What about the Activity [6] of the same compound?
**A.** 87.6%

**Q.** What about the Activity [11] of the same compound?
**A.** 65%

**Q.** And the Activity [12]?
**A.** 99%

**Q.** And the Activity [13]?
**A.** 60%

**Q.** What about the Activity [14] of the same compound?
**A.** 30%

**Q.** What about the Activity [7] of the same compound?
**A.** 87.6%

**Q.** And the Activity [8]?
**A.** 87.6%

**Q.** And the Activity [15]?
**A.** 99%

**Q.** What about the Activity [16] of the same compound?
**A.** 0%

**Q.** And the Activity [17]?
**A.** 0%

**Q.** What about the Activity [18] of the same compound?
**A.** 75%

**Q.** What about the Activity [19] of the same compound?
**A.** 0%

**Q.** What about the Activity [20] of the same compound?
**A.** 99%

**Q.** Which results are given for COCC1=CN(C(C)(C)c2cc(Cl)cc(Cl)c2)C(=O)C1(C(=O)OC)c1ccccc1 (configuration not stated)?
**A.** Activity [1]: 100%; Activity [2]: 100%; Activity [3]: 100%; Activity [4]: 75.1%; Activity [5]: 100%; Activity [6]: 50.1%; Activity [11]: 98%; Activity [12]: 100%; Activity [13]: 30%; Activity [7]: 87.6%; Activity [8]: 87.6%; Activity [15]: 98%; Activity [16]: 0%; Activity [18]: 65%; Activity [19]: 0%; Activity [20]: 99%

**Q.** Which Activity [1] does the source give for COC(=O)C1(c2ccccc2F)C(=O)N(C(C)(C)c2cc(Cl)cc(Cl)c2)C=C1C (configuration not stated) here?
**A.** 100%

**Q.** What about the Activity [9] of the same compound?
**A.** 0%

**Q.** What about the Activity [2] of the same compound?
**A.** 100%

**Q.** What about the Activity [3] of the same compound?
**A.** 100%

**Q.** What about the Activity [4] of the same compound?
**A.** 100%

**Q.** And the Activity [5]?
**A.** 100%

**Q.** What about the Activity [10] of the same compound?
**A.** 99%

**Q.** What about the Activity [6] of the same compound?
**A.** 0.1%

**Q.** What about the Activity [21] of the same compound?
**A.** 0%

**Q.** What about the Activity [11] of the same compound?
**A.** 30%

**Q.** What about the Activity [12] of the same compound?
**A.** 100%

**Q.** What about the Activity [13] of the same compound?
**A.** 5%

**Q.** And the Activity [14]?
**A.** 80%

**Q.** And the Activity [7]?
**A.** 0.1%

**Q.** And the Activity [8]?
**A.** 87.6%

**Q.** What about the Activity [15] of the same compound?
**A.** 100%

**Q.** And the Activity [16]?
**A.** 0%

**Q.** And the Activity [17]?
**A.** 0%

**Q.** And the Activity [18]?
**A.** 90%

**Q.** And the Activity [22]?
**A.** 20%

**Q.** What about the Activity [19] of the same compound?
**A.** 0%

**Q.** And the Activity [20]?
**A.** 99%

**Q.** What does the source list for C=C1CN(C(C)(C)c2cc(Cl)cc(Cl)c2)C(=O)C1(C(=O)OC)c1ccccc1 (configuration not stated)?
**A.** Activity [9]: 70%; Activity [10]: 99%; Activity [11]: 99%; Activity [12]: 100%; Activity [13]: 95%; Activity [14]: 40%; Activity [15]: 99%; Activity [16]: 0%; Activity [17]: 0%; Activity [18]: 99%; Activity [19]: 0%; Activity [20]: 99%

**Q.** How did the Activity [1] turn out when CCOC(=O)C1(c2ccccc2)C(=O)N(C(C)(C)c2cc(Cl)cc(Cl)c2)C=C1C (configuration not stated) was run?
**A.** 100%

**Q.** What about the Activity [2] of the same compound?
**A.** 100%

**Q.** What about the Activity [3] of the same compound?
**A.** 100%

**Q.** What about the Activity [4] of the same compound?
**A.** 87.6%

**Q.** And the Activity [5]?
**A.** 100%

**Q.** And the Activity [6]?
**A.** 75.1%

**Q.** And the Activity [7]?
**A.** 0%

**Q.** And the Activity [8]?
**A.** 75.1%
